We go through three compounds from patent US20210236507A1, “METHODS AND PHARMACEUTICAL COMPOSITIONS FOR PREVENTING RELAPSE IN A PERSON WITH AN ADDICTION USING BETA ADRENERGIC RECEPTOR ANTAGONIST AND MUSCARINIC RECEPTOR ANTAGONIST COMBINATIONS” (MAGNOLIA CNS, LLC, priority 2020, published 2021).

As usually defined, the Ki is the equilibrium dissociation constant of an inhibitor or competing ligand from its target.

Data set [1] concerns the target muscarinic acetylcholine receptors (all five human receptor subtypes). The conditions noted are these: cited from earlier work.
For another data set, the system named is humans. The experiment in a line: Taste and mouth paresthesia of dose forms noted in humans during development. The class given is in vivo, human. The conditions noted are these: sublingual/liquid/solid dose forms. From the text:
The pharmaceutical compositions of the present invention, when intended for sublingual, buccal, and/or oral delivery, may benefit from taste-masking with natural and/or artificial flavors and/or sweeteners (e.g., mannitol, sucralose, monosaccharides, and disaccharides). Mouth paresthesia (numbness) can occur with propranolol HCl as a perceived adverse effect.
Alternative beta blockers may be chosen that lack these undesirable properties, such as atenolol.
Tablets are formed by compression of the powder using a mechanical tablet press. For instance tablets without coatings are prepared with composition #11 at about 70 mg each, for use as sublingual or oral dose forms. At this size of tablet an adult dose would deliver 20 mg propranolol HC and 0.5 mg scopolamine HBr. Alternatively, tablets may be produced using a triturate tablet mold (e.g., from the vendor PCCA), wherein the triturated powder is moistened with 95% ethanol and then the wells are filled with the moistened composition, extruded from the wells, and dried. The intra-oral mucosal (e.g., sublingual) tablets dissolve rapidly under the tongue, for instance in less than one minute (e.g., solid dose forms #13 and 14). […] Sublingual (or buccal) tablets may be preferred for rapid disintegration, dissolution, absorption and increased bioavailability via the mucosal route. A sublingual tablet of #23 weighing ca. 82 mg delivers a dose of ca. 25 mg atenolol and ca. 0.25 mg of scopolamine HBr. Tablets may also be ingested orally, although it is rational to presume that absorption will be somewhat delayed and bioavailability will be somewhat reduced with many APIs, relative to the mucosal route.

“Also recorded” adds a separate entry of the source. Counter-ions that a name gives are not always drawn.

As for `CN1[C@@H]2C[C@@H](OC(=O)[C@H](CO)c3ccccc3)C[C@H]1[C@@H]1O[C@@H]12` [Scopolamine], in data set [1], the Ki is 0.34 to 53 nM.
Take `CC(C)NCC(O)COc1cccc2ccccc12` (stereo not drawn) [Propranolol HCl]: the mouth/tongue paresthesia entry with humans (HCl) was “delayed paresthesia of the tongue”; in the data set with humans (listed as propranolol HCl, HCl), “produces mouth paresthesia”; with humans (listed as propranolol, HCl) it was “Paresthesia”. The taste entry with humans (HCl) is ““acidic” and “medicine” taste”; in the data set with humans (listed as propranolol HCl, HCl), ““acidic” and “medicine” taste”; in the data set with humans (listed as propranolol, HCl), “undesirable taste”.
Take `CC(C)NCC(O)COc1ccc(CC(N)=O)cc1` (stereo not drawn) [atenolol]: in the data set with humans, the mouth/tongue paresthesia result was “neither property was observed; also recorded: lacked these undesirable characteristics” and the taste result is “neither property was observed; also recorded: lacked these undesirable characteristics”.
